Key:
Experiment in all cases: relative viability (nuclei count vs DMSO), 5 days (fraction); higher = more cells survive
Elesclomol + Dasatinib = compound: CN(NC(=O)CC(=O)NN(C)C(=S)c1ccccc1)C(=S)c1ccccc1 [Elesclomol] + Cc1nc(Nc2ncc(C(=O)Nc3c(C)cccc3Cl)s2)cc(N2CCN(CCO)CC2)n1 [Dasatinib] (partner 0.075 µM)
Method in brief: (§1)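 Medians of duplicate plates are given as relative viability. That measure is the nuclei count in treated wells divided by the count in vehicle wells. Counts were taken on 4× images of lung cancer cell lines in 1536-well plates, 5 days after pin-tool dosing the day after seeding with one drug alone or a fixed anchor-drug dose plus five library-drug doses (not always all listed) in √10 steps.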

Elesclomol + Tozasertib = compound: CN(NC(=O)CC(=O)NN(C)C(=S)c1ccccc1)C(=S)c1ccccc1 [Elesclomol] + Cc1cc(Nc2cc(N3CCN(C)CC3)nc(Sc3ccc(NC(=O)C4CC4)cc3)n2)n[nH]1 [Tozasertib] (partner 0.1 µM)
Method in brief: as §1

Elesclomol + Phenformin = compound: CN(NC(=O)CC(=O)NN(C)C(=S)c1ccccc1)C(=S)c1ccccc1 [Elesclomol] + N=C(N)NC(=N)NCCc1ccccc1 [Phenformin] (partner 250 µM)
Method in brief: as §1

Elesclomol + OSI-027 = compound: CN(NC(=O)CC(=O)NN(C)C(=S)c1ccccc1)C(=S)c1ccccc1 [Elesclomol] + COc1cccc2cc(-c3nc([C@H]4CC[C@H](C(=O)O)CC4)n4ncnc(N)c34)[nH]c12 [OSI-027] (partner 0.5 µM)
Method in brief: as §1

Elesclomol + Foretinib = compound: CN(NC(=O)CC(=O)NN(C)C(=S)c1ccccc1)C(=S)c1ccccc1 [Elesclomol] + COc1cc2c(Oc3ccc(NC(=O)C4(C(=O)Nc5ccc(F)cc5)CC4)cc3F)ccnc2cc1OCCCN1CCOCC1 [Foretinib] (partner 0.25 µM)
Method in brief: as §1

Elesclomol + Luminespib = compound: CN(NC(=O)CC(=O)NN(C)C(=S)c1ccccc1)C(=S)c1ccccc1 [Elesclomol] + CCNC(=O)c1noc(-c2cc(C(C)C)c(O)cc2O)c1-c1ccc(CN2CCOCC2)cc1 [Luminespib] (partner 0.01 µM)
Method in brief: as §1

Elesclomol = compound: CN(NC(=O)CC(=O)NN(C)C(=S)c1ccccc1)C(=S)c1ccccc1 [Elesclomol]
Method in brief: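 Lung cancer cell lines received five library-drug doses (not always all listed) spaced by √10, pinned on vehicle-anchored 1536-well plates after an overnight stay at 37 °C. Five days later, with no medium change, nuclei were Hoechst-stained, imaged at 4× and counted with MetaXpress. Viability is treated-well nuclei relative to vehicle-well nuclei, as a median across plates. Passing plates had control CV below 25% and at least one doubling.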

Elesclomol + AZD7762 = compound: CN(NC(=O)CC(=O)NN(C)C(=S)c1ccccc1)C(=S)c1ccccc1 [Elesclomol] + NC(=O)Nc1cc(-c2cccc(F)c2)sc1C(=O)N[C@H]1CCCNC1 [AZD7762] (partner 0.2 µM)
Method in brief: as §1

Elesclomol + Pemetrexed = compound: CN(NC(=O)CC(=O)NN(C)C(=S)c1ccccc1)C(=S)c1ccccc1 [Elesclomol] + Nc1nc2[nH]cc(CCc3ccc(C(=O)N[C@@H](CCC(=O)O)C(=O)O)cc3)c2c(=O)[nH]1 [Pemetrexed] (partner 0.2 µM)
Method in brief: as §1

Elesclomol + Palbociclib = compound: CN(NC(=O)CC(=O)NN(C)C(=S)c1ccccc1)C(=S)c1ccccc1 [Elesclomol] + CC(=O)c1c(C)c2cnc(Nc3ccc(N4CCNCC4)cn3)nc2n(C2CCCC2)c1=O [Palbociclib] (partner 0.5 µM)
Method in brief: as §1

Elesclomol + Trametinib = compound: CN(NC(=O)CC(=O)NN(C)C(=S)c1ccccc1)C(=S)c1ccccc1 [Elesclomol] + CC(=O)Nc1cccc(-n2c(=O)n(C3CC3)c(=O)c3c(Nc4ccc(I)cc4F)n(C)c(=O)c(C)c32)c1 [Trametinib] (partner 0.02 µM)
Method in brief: as §1

Elesclomol + Olaparib = compound: CN(NC(=O)CC(=O)NN(C)C(=S)c1ccccc1)C(=S)c1ccccc1 [Elesclomol] + O=C(c1cc(Cc2n[nH]c(=O)c3ccccc23)ccc1F)N1CCN(C(=O)C2CC2)CC1 [Olaparib] (partner 8 µM)
Method in brief: as §1

Elesclomol + Decitabine = compound: CN(NC(=O)CC(=O)NN(C)C(=S)c1ccccc1)C(=S)c1ccccc1 [Elesclomol] + Nc1ncn([C@H]2C[C@H](O)[C@@H](CO)O2)c(=O)n1 [Decitabine] (partner 2 µM)
Method in brief: as §1

Elesclomol + Vorinostat = compound: CN(NC(=O)CC(=O)NN(C)C(=S)c1ccccc1)C(=S)c1ccccc1 [Elesclomol] + O=C(CCCCCCC(=O)Nc1ccccc1)NO [Vorinostat] (partner 1 µM)
Method in brief: as §1

## NCI-H1623
Elesclomol + Dasatinib; first compound 0.003162 µM
  relative viability: 0.499
Elesclomol + Dasatinib; first compound 0.01 µM
  relative viability: 0.464
Elesclomol + Dasatinib; first compound 0.03162 µM
  relative viability: 0.312
Elesclomol + Dasatinib; first compound 0.1 µM
  relative viability: 0.254
Elesclomol + Tozasertib; first compound 0.003162 µM
  relative viability: 0.392
Elesclomol + Tozasertib; first compound 0.01 µM
  relative viability: 0.417
Elesclomol + Tozasertib; first compound 0.03162 µM
  relative viability: 0.35
Elesclomol + Tozasertib; first compound 0.1 µM
  relative viability: 0.303
Elesclomol + Phenformin; first compound 0.003162 µM
  relative viability: 0.624
Elesclomol + Phenformin; first compound 0.01 µM
  relative viability: 0.552
Elesclomol + Phenformin; first compound 0.03162 µM
  relative viability: 0.539
Elesclomol + Phenformin; first compound 0.1 µM
  relative viability: 0.443
Elesclomol + OSI-027; first compound 0.003162 µM
  relative viability: 0.386
Elesclomol + OSI-027; first compound 0.01 µM
  relative viability: 0.353
Elesclomol + OSI-027; first compound 0.03162 µM
  relative viability: 0.347
Elesclomol + OSI-027; first compound 0.1 µM
  relative viability: 0.296
Elesclomol + Foretinib; first compound 0.003162 µM
  relative viability: 0.868
Elesclomol + Foretinib; first compound 0.01 µM
  relative viability: 0.526
Elesclomol + Foretinib; first compound 0.03162 µM
  relative viability: 0.422
Elesclomol + Foretinib; first compound 0.1 µM
  relative viability: 0.422
Elesclomol + Luminespib; first compound 0.003162 µM
  relative viability: 0.235
Elesclomol + Luminespib; first compound 0.01 µM
  relative viability: 0.216
Elesclomol + Luminespib; first compound 0.03162 µM
  relative viability: 0.251
Elesclomol + Luminespib; first compound 0.1 µM
  relative viability: 0.217
Elesclomol; 0.003162 µM
  relative viability: 0.775
Elesclomol; 0.01 µM
  relative viability: 0.462
Elesclomol; 0.03162 µM
  relative viability: 0.37
Elesclomol; 0.1 µM
  relative viability: 0.339

## NCI-H1648
Elesclomol + AZD7762; first compound 0.003162 µM
  relative viability: 0.581
Elesclomol + AZD7762; first compound 0.01 µM
  relative viability: 0.686
Elesclomol + AZD7762; first compound 0.03162 µM
  relative viability: 0.61
Elesclomol + AZD7762; first compound 0.1 µM
  relative viability: 0.622
Elesclomol + Tozasertib; first compound 0.003162 µM
  relative viability: 0.379
Elesclomol + Tozasertib; first compound 0.01 µM
  relative viability: 0.409
Elesclomol + Tozasertib; first compound 0.03162 µM
  relative viability: 0.506
Elesclomol + Tozasertib; first compound 0.1 µM
  relative viability: 0.54
Elesclomol + Pemetrexed; first compound 0.003162 µM
  relative viability: 0.7
Elesclomol + Pemetrexed; first compound 0.01 µM
  relative viability: 0.599
Elesclomol + Pemetrexed; first compound 0.03162 µM
  relative viability: 0.752
Elesclomol + Pemetrexed; first compound 0.1 µM
  relative viability: 0.673
Elesclomol + OSI-027; first compound 0.003162 µM
  relative viability: 0.263
Elesclomol + OSI-027; first compound 0.01 µM
  relative viability: 0.276
Elesclomol + OSI-027; first compound 0.03162 µM
  relative viability: 0.224
Elesclomol + OSI-027; first compound 0.1 µM
  relative viability: 0.295
Elesclomol + Palbociclib; first compound 0.003162 µM
  relative viability: 0.301
Elesclomol + Palbociclib; first compound 0.01 µM
  relative viability: 0.285
Elesclomol + Palbociclib; first compound 0.03162 µM
  relative viability: 0.266
Elesclomol + Palbociclib; first compound 0.1 µM
  relative viability: 0.253
Elesclomol + Trametinib; first compound 0.003162 µM
  relative viability: 0.555
Elesclomol + Trametinib; first compound 0.01 µM
  relative viability: 0.415
Elesclomol + Trametinib; first compound 0.03162 µM
  relative viability: 0.46
Elesclomol + Trametinib; first compound 0.1 µM
  relative viability: 0.39
Elesclomol + Olaparib; first compound 0.003162 µM
  relative viability: 0.675
Elesclomol + Olaparib; first compound 0.01 µM
  relative viability: 0.753
Elesclomol + Olaparib; first compound 0.03162 µM
  relative viability: 0.835
Elesclomol + Olaparib; first compound 0.1 µM
  relative viability: 0.796
Elesclomol + Decitabine; first compound 0.003162 µM
  relative viability: 0.551
Elesclomol + Decitabine; first compound 0.01 µM
  relative viability: 0.469
Elesclomol + Decitabine; first compound 0.03162 µM
  relative viability: 0.509
Elesclomol + Decitabine; first compound 0.1 µM
  relative viability: 0.453
Elesclomol + Vorinostat; first compound 0.003162 µM
  relative viability: 0.338
Elesclomol + Vorinostat; first compound 0.01 µM
  relative viability: 0.416
Elesclomol + Vorinostat; first compound 0.03162 µM
  relative viability: 0.385
Elesclomol + Vorinostat; first compound 0.1 µM
  relative viability: 0.313
Elesclomol; 0.003162 µM
  relative viability: 0.606
Elesclomol; 0.01 µM
  relative viability: 0.725
Elesclomol; 0.03162 µM
  relative viability: 0.827
Elesclomol; 0.1 µM
  relative viability: 0.76

Source: the supplement of paper PMC10307832
